According to US20250154468A1, “METHOD FOR INDUCING DEDIFFERENTIATION OF ADIPOCYTES” (City University of Hong Kong, priority 2023, published 2025):

Tests used:
Type in all cases: cell-based, mouse
[1] = system: TNF-α, IL-6, RIP1, CEBPA, and MCP-1; experiment: RT-qPCR of inflammatory genes in 3T3-L1 adipocytes
Method: To validate this, MEVs were isolated from the hypertonic treatment of 3T3-L1 adipocytes and subsequently applied to naïve 3T3-L1 adipocytes cultured in isotonic conditions (FIG. 6A).
(§1) Total RNA was isolated using the RNA Extraction Kit (Takara, product no. 9767) in accordance with the manufacturer's recommended protocol. The first-strand cDNA was synthesized using the PrimeScript RT Reagent Kit (Takara, product no. RR047A) for RT-PCR. In brief, a 10 μl system containing 2 μl of 5× PrimeScript RT Master Mix (Perfect Real Time) and RNase-Free Distilled Water and RNA solution, with a total RNA amount of 500 ng, was transferred to the ABI ProFlex PCR System (2×96-well) to perform reverse transcription. RT-PCR was then conducted using the Ex-Taq PCR kit (Takara, product no. RR820A) following the manufacturer's instructions. All RT-qPCR primer sequences were included in Table 2.

[2] = system: mitochondria in adipocytes; experiment: MitoTracker Green (MTG) staining of mitochondria; conditions: pyruvic acid (1 mM) added to the hypertonic treatment
Method: Hypertonicity is known to disrupt the ionic homeostasis of cells and reduce the electronic potential in mitochondria, consequentially inhibiting ATP production.
To stain cells with MitoTracker (CST, product no. FM 9074), the 1 mM stock solution should be diluted directly into normal growth media to achieve a staining concentration ranging from 400 nM. The live cells were incubated for 15 minutes at 37° C. Following incubation, live imaging is necessary to visualize the staining pattern within the cells.
To mitigate mitochondrial stress, adipocytes were treated with 1 mM pyruvic acid (Sigma-Aldrich, product no. 107360) in hypertonic cultures. An equivalent volume of DMSO was added to the control samples. Following the treatment, the cells were either subjected to MTG staining or the supernatants were collected for EV isolation and analysis.

[3] = system: VDAC and NDUFA9 in the EVs of 3T3-L1 adipocytes; experiment: Immunoblot of mitochondrial proteins in EVs of 3T3-L1 adipocytes
Method: To obtain lysates, cells were washed twice with cold PBS and lysed with 1 mL of RIPA buffer (Beyotime, product no. P0013B) at 4° C. for 1 hour with gentle rotation. The lysate was subsequently centrifuged at 12,000 g for 20 min at 4° C., and the resulting supernatant was quantified the protein concentration. Protein extracts were then separated by SDS-PAGE and transferred onto a NC membrane (Bio-Rad, product no. 1620112). The membranes were incubated overnight at 4° C. with antibodies against VDAC (CST, product no. 4866s, 1:1000), NDUFA9 (Abcam, product no. ab14713, 1:1000), CD81(Santa Cruz, product no. sc-166029, 1:1000), Non-phospho (Active) β-Catenin (CST, product no. 8814, 1:2000), β-Catenin (CST, product no. 9562, 1:1000) and 3-actin (Santa Cruz, product no. sc-47778, 1:1000). Following incubation with the appropriate secondary antibody (Abcam, product no. ab205719; Thermo Fisher, product no. 31460, 1:4000), the protein bands were visualized using an enhanced chemiluminescence (ECL) kit (Bio-Rad, product no. 170-5061) and captured using a Bio-red ChemiDoc. […]
The 3T3-L1 adipocytes were treated by isotonic and hypertonic medium. […] The resuspended suspensions contain approximately 80 μg protein each as determined by DC protein assay (Bio-Rad, product no. 5000114). […]

Smad 9, Esrrb, and Sox2 = experiment: RT-qPCR of multipotency / stem cell marker genes in adipocytes; conditions: BML-284 treated cells
Method: as §1

3T3-L1 adipocytes [4] = experiment: Chondrogenic re-differentiation of treated 3T3-L1 adipocytes; conditions: BML-284-treated adipocytes
3T3-L1 adipocytes [5] = experiment: Loss of lipid droplets and morphological changes of 3T3-L1 adipocytes; set-up: loss of lipid droplets: dose or concentration left out as unconfirmed
Method: 3T3-L1 (ATCC CL-173) cells were cultured in DMEM medium (Thermo Fisher, product no. 11965126) containing 10% FBS, 2 mM L-glutamine and […] of penicillin-streptomycin (Thermo Fisher).
1.25×10^5 3T3-L1 were seeded in 6-well dishes and cultured at 37° C. and 5% CO2. The 10 μg/ml insulin (MedChemExpress, product no. HY-P0035), 1 μM dexamethasone (MedChemExpress, product no. HY-14648), 0.5 mM 3-isobutyl-1-methylxanthine (IBMX) (MedChemExpress, product no. HY-12318) and 2 μM rosiglitazone (Sigma, product no. R2408-10MG) (Differentiation medium) were supplemented in culture medium to constitute the differentiation medium for 2 days. Differentiation to SVF was induced by differentiation medium. The SVF cells were incubated for 5 days with differentiation medium. The medium was then changed to DMEM containing 10% FBS, 1×P/S, and 10 μg/ml insulin for 48 h, followed by changing to the culture medium.
[…] […] HY-Y0873), and maintained at 37° C. and 5% CO2. The medium was changed every 3 days, being careful to avoid shaking the dish to allow the hypertonic medium to diffuse slowly in the culture dish.

adipocytes = experiment: Oil Red O staining of adipocytes; conditions: BML-284 treatment
Method: Adipocytes were stained with Oil red O staining kit (Solarbio, product no. G1262) solution to detect the lipid droplets according to manufacturer's instructions. Specifically, cells were fixed with 10% formalin for 20 min at room temperature, followed by washing with 60% isopropanol for 5 min. Subsequently, staining was conducted with ORO solution for 20 min at room temperature to enable binding of the dye to the lipid droplets. Finally, the cells were washed with distilled water to eliminate any residual dye.

3T3-L1 adipocytes [6] = experiment: Osteogenic re-differentiation of treated 3T3-L1 adipocytes; conditions: BML-284-treated adipocytes
Method: The osteogenic and chondrogenic re-differentiation capacities of dedifferentiated adipocytes were also examined. To induce osteogenic differentiation, 1×10^6 cells were seeded in 6-well plates and incubated overnight at 37° C. and 5% CO2. The culture medium was then replaced with StemPro Osteogenesis Differentiation medium (Thermo Fisher, product no. A1007201) and cells were maintained in this medium for up to 14 days, with medium renewal every 3 days. This medium contains specific factors that promote differentiation towards the osteogenic lineage, allowing the cells to deposit mineralized extracellular matrix and express osteogenic markers.
Alkaline phosphatase (ALP) staining was conducted on Day 9 of the feeder cell-mediated reprogramming process, following the manufacturer's instructions for the Alkaline Phosphatase Detection Kit (Sigma, product no. SCR004). The staining was performed to detect the activity of ALP, a marker of pluripotency, and to assess the success of the reprogramming process.
Total RNA was isolated using the RNA Extraction Kit (Takara, product no. 9767) in accordance with the manufacturer's recommended protocol. The first-strand cDNA was synthesized using the PrimeScript RT Reagent Kit (Takara, product no. RR047A) for RT-PCR. […]

3T3-L1 adipocytes [7] = experiment: AnnexinV-FITC/PI staining, apoptosis of adipocytes; conditions: comparison of BML-284 and hypertonic treatment
Method: The hypertonic dedifferentiation of adipocytes typically requires up to 7 days of culture in 2% PEG-300. Considering that TNF-α is recognized as a proinflammatory cytokine capable of inducing adipocyte apoptosis, an evaluation of the apoptotic status of adipocytes was carried out using AnnexinV-FITC/PI staining. […] It was concluded that the extended hypertonic treatment could lead to apoptosis alongside the dedifferentiation of adipocytes.

SVF adipocytes = experiment: Loss of lipid droplets and morphological changes of SVF-derived adipocytes; set-up: loss of lipid droplets: dose or concentration left out as unconfirmed
Method: C57BL/6J mice were used for the present invention and maintained in a 12:12 h light-dark cycle. All mouse experiments were performed in accordance with the protocol approved by the Institutional Animal Research Ethics Sub-Committee of City University of Hong Kong and Department of Health, The Government of The Hong Kong Special Administrative Region. 6 to 8-week-old female were anesthetized with 4% of isoflurane by inhalation, and then inguinal, retroperitoneal WAT were removed. The tissues were shredded after washing in sterile PBS. Afterwards, the tissue pieces were incubated in type II collagenase (Sigma, product no. C6885) for 1 h at 37° C. before passed through a sterile 100 μm filter. SVF was obtained after 5 min centrifugation at 1000 rpm. Culture medium (DMEM supplemented with 10% FBS and 1% penicillin-streptomycin (all obtained from Thermo Fisher) was added to resuspend the cells, followed by culturing in 100 mm culture dishes. The following day, the culture medium was changed to remove the dead and non-adherent cells.
1.25×10^5 3T3-L1 were seeded in 6-well dishes and cultured at 37° C. and 5% CO2. […]

CD13 and Endoglin = experiment: Immunostaining of surface markers of dedifferentiated adipocytes; conditions: BML-284 treated cells
Method: Twelve hours before the experiment, cells were seeded onto cover slips in 12-well dishes and cultured overnight at 37° C. and […]. Cells were fixed with […] for 10 min at 4° C. Next, the cells were either directly incubated with 1% BSA/PBS for 1 h or first permeabilized with 0.1% Triton X-100/PBS for 10 min at 4° C. before blocking with 1% BSA/PBS. Subsequently, CD13 primary antibody (Santa Cruz, product no. sc-13536 1:100) or Endoglin primary antibody (Santa Cruz, product no. sc-18838 1:100) was incubated with cells overnight at 4° C. Following 3 times washing in 0.5% tween/PBS, cells were incubated with secondary antibody (CST, product no. 8890S) in 1% BSA/PBS (1:400) in darkness for 1.5 hours at room temperature. After further washing, cells were mounted with DAPI (Thermo Fisher, product no. 62247) and examined with a Nikon A1HD25 confocal microscope.

[8] = system: C/EBPβ, PPAR-γ, and adiponectin; experiment: RT-qPCR of adipogenic markers in 3T3-L1 adipocytes; conditions: BML-284 treated cells
Method: as §1

CC(=O)C(=O)O [pyruvic acid]
induction of TNF-α expression by hypertonic EVs ([1]; EVs from hypertonic culture with pyruvic acid): prevented | induction of TNF-α and IL-6 expression in hypertonic culture ([1]; pyruvic acid added to the hypertonic culture, 2 hours): abolished | MTG staining of mitochondria in adipocytes [2]: effectively restored | levels of mitochondrial proteins VDAC and NDUFA9 in the EVs ([3]; pyruvic acid 1 mM in hypertonic culture): reduced

O=C(/C=C/c1ccc(/C=C/C(=O)Nc2ccc(C3=NCCN3)cc2)cc1)Nc1ccc(C2=NCCN2)cc1 [GW4869]
EVs level of NDUFA9 induced by hypertonic treatments ([3]; 10 μM GW4869, vs DMSO): substantially inhibited

COc1cccc(-c2cc(NCc3ccc4c(c3)OCO4)nc(N)n2)c1 [BML-284, 2-amino-4-(3,4-(methylenedioxy)benzylamino)-6-(3-methoxyphenyl)pyrimidine]
expression of marker genes of multipotency (Smad 9, Esrrb, Sox2) (Smad 9, Esrrb, and Sox2): significant increases | expression of chondrogenic markers after inducing treatment (3T3-L1 adipocytes [4]): increased expression | loss of lipid droplets (3T3-L1 adipocytes [5]; 3T3-L1 adipocytes, isotonic culture, 4 days): 40% | cells with elongated morphology (3T3-L1 adipocytes [5]; BML-284-treated 3T3-L1 adipocytes): significant increases | Oil red staining (adipocytes): decreased | expression of osteogenic markers after inducing treatment (3T3-L1 adipocytes [6]): increased expression | apoptosis in 3T3-L1 adipocytes (3T3-L1 adipocytes [7]): did not lead to significant apoptosis | cells with elongated morphology (SVF adipocytes; BML-284-treated SVF adipocytes): significant increases | loss of lipid droplets (SVF adipocytes; SVF adipocytes, isotonic culture, 4 days): 80% | expression of proteins of multipotency (CD13 and endoglin) (CD13 and Endoglin): significant increases | expression of adipogenic genes (C/EBPβ, PPAR-γ, adiponectin) [8]: significant reductions
